According to patent US20100137208A1, “INTRATUMORALLY ADMINISTERED LACTOFERRIN IN THE TREATMENT OF MALIGNANTNEOPLASMS AND OTHER HYPERPROLIFERATIVE DISEASES” (priority 2002, published 2010):

Experiments:
[1] = tested on: murine squamous carcinoma cell line (SCCVII); test: SCCVII floor-of-mouth tumor growth, oral rhLF and/or cisplatin; format: in vivo, C3H mice; conditions: in combination rhLF 200 mg/Kg oral days 5-12
Protocol: A murine squamous carcinoma cell line (SCCVII) was injected into the floor of the mouth through the neck skin of immunocompetent C3H mice (Day 0). […] Tumors were measured in three dimensions with calipers.
Tumor-bearing mice were randomized into a control group and seven groups receiving rhLF and/or cisplatin. RhLF (4 mg; 200 mg/Kg) was administered once daily by oral gavage for 8 days on days 5 through 12. Cisplatin was administered as a single dose of 5 mg/Kg given intraperitoneally either at the start of rhLF (day 5), in the middle (day 8) or at the end (day 12) of rhLF therapy. Animals were sacrificed on day 12 post-implantation and the residual tumor masses were measured and processed for later additional analyses.
A murine squamous carcinoma cell line (SCCVII) was injected into the floor of the mouth through the neck skin of immunocompetent C3H mice (Day 0) as described in Example 6. On Day 5 days after initial implantation, tumors were measured for the baseline, then treated with either cisplatin (Day 8, i.p., 5 mg/kg) alone or cisplatin plus three doses of oral rhLF (daily by gavage for 7-8 days on days 5 through 11/12). Animals were sacrificed on Day 11/12 and tumors measured.

[2] = tested on: murine squamous carcinoma cell line (SCCVII); test: SCCVII floor-of-mouth tumor growth, docetaxel with or without oral rhLF; format: in vivo, C3H mice; conditions: docetaxel i.v. bolus 31.3 mg/kg Day 8, in combination rhLF 200 mg/kg oral days 5 to 12
Protocol: A murine squamous carcinoma cell line (SCCVII) was injected into the floor of the mouth through the neck skin of immunocompetent C3H mice (Day 0) as described in Example 7. On Day 5 after initial implantation, tumors were measured for the baseline, then treated with either oral placebo alone (once daily from days 5 to 12; 6 animals), placebo and docetaxel (i.v. bolus of 31.3 mg/kg docetaxel on Day 8; 9 animals), or docetaxel plus oral rhLF (200 mg/kg, administered once daily by gavage from days 5 to 12; 9 animals). Animals were sacrificed on Day 14 and tumors measured. Docetaxel alone caused an inhibition of tumor growth relative to placebo and the combination of rhLF and docetaxel induced a further growth inhibition.

SMILES	TGI (%) Relative to Placebo ([1]; cisplatin 5 mg/Kg i.p. on day 5)	TGI (%) Relative to Placebo ([1]; cisplatin 5 mg/Kg i.p. on day 8)	TGI (%) Relative to Placebo ([1]; cisplatin 5 mg/Kg i.p. on day 12)	TGI (%) Relative to Placebo ([1]; pooled cisplatin schedules (day 5, 8, 12))	TGI (%) Relative to Placebo ([2]; Day 14)	Tumor Growth ([2]; measured Day 14)
N.N.[Cl][Pt][Cl] [CP, Cisplatin]	68%	6%	42%	38%		
CC(=O)O[C@@]12CO[C@@H]1C[C@H](O)[C@@]1(C)C(=O)[C@H](O)C3=C(C)[C@@H](OC(=O)[C@H](O)[C@@H](NC(=O)OC(C)(C)C)c4ccccc4)C[C@@](O)([C@@H](OC(=O)c4ccccc4)[C@H]21)C3(C)C [Docetaxel]					59%	2,103
